Legend:
[1] = biological target: Beta-3 adrenergic receptor (Homo sapiens, UniProt P13945)
[2] = biological target: Beta-2 adrenergic receptor (Homo sapiens, UniProt P07550)
Chain of Beta-2 adrenergic receptor (P07550 whole entry): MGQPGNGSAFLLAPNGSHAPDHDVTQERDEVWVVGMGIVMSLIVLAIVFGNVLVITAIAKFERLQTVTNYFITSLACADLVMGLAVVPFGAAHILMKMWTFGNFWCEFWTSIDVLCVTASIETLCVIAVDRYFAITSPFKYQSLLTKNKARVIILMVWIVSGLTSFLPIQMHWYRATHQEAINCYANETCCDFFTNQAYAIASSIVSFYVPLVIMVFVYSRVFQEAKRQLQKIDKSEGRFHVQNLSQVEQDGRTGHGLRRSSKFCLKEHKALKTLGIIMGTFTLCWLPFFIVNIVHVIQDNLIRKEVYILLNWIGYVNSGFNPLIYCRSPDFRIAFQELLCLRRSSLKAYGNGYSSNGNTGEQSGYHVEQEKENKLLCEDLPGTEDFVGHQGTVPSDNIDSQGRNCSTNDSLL

Chain of Beta-3 adrenergic receptor (P13945 whole entry): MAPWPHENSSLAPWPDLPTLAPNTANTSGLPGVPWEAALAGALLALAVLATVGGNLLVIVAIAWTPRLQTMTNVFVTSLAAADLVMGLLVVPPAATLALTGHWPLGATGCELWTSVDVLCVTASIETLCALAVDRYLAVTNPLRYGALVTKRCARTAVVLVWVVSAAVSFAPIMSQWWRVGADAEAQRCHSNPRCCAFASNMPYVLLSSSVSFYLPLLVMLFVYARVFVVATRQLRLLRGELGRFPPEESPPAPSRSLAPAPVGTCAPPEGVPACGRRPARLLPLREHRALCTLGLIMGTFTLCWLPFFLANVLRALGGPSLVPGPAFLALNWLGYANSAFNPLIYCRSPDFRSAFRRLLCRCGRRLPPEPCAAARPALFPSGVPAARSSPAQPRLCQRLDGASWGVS

- Ki [1]: > 10000 nM
- Ki [2]: 25.7 nM
SMILES: CN(C)C(=O)COc1ccc2c(c1)C[C@@H](NC[C@H](O)c1ccc(O)c(CCO)c1)CC2 [KUR-1246]

— BindingDB's records for PubMed 11303056 (Kissei Pharmaceutical, 2001)
